In patent US11197863B2, “Inhibitors of polo-like kinase 4 (PLK4) for treating pediatric embryonal tumors” (ANN AND ROBERT H. LURIE CHILDREN'S HOSPITAL OF CHICAGO, priority 2017, dated 2021):
Like-named read-outs stand apart in the source and are kept apart here.

How the values were obtained:
MON cells = test: Combination therapy viability assay; format: cell-based; details: Homo sapiens, 72 h, read-out: IC50 of compound 2
DAOY cells = test: Combination therapy viability assay; details: Homo sapiens, 72 h
BT-16 cells = test: Combination therapy viability assay; format: cell-based; details: Homo sapiens, BT-16, 72 h, read-out: IC50 of compound 2
[1] = test system: rhabdoid mouse xenograft models; details: in vivo; cited from earlier work
[2] = children, single agent; cited from earlier work
[3] = test system: rhabdoid tumor cell lines; details: inhibition of ERBB2; cited from earlier work
[4] = combined with CFI-400945 (5 nM)
[5] = combined with CFI-400945 (10 nM)
[6] = read-out: IC50 of compound 2, DAOY, combined with CFI-400945 (5 nM)
[7] = read-out: IC50 of compound 2, DAOY, combined with CFI-400945 (10 nM)

Row | IC50 (BT-16 cells; [4]) [µM] | IC50 (BT-16 cells; [5]) [µM] | Structure (SMILES) | IC50 (MON cells; [4]) [µM] | IC50 (MON cells; [5]) [µM] | IC50 (DAOY cells; [6]) [µM] | IC50 (DAOY cells; [7]) [µM] | response rates [1] | clinical activity [2] | cell migration and apoptosis [3]
1 | 0.566 | 0.576 | COc1cccc2c1C(=O)c1c(O)c3c(c(O)c1C2=O)C[C@@](O)(C(=O)CO)C[C@@H]3O[C@H]1C[C@H](N)[C@H](O)[C@H](C)O1 [Doxorubicin, doxorubicin] | 0.074 | 0.057 | 0.168 | 0.199 |  |  | 
2 | 0.593 | 0.006 | COc1cc([C@@H]2c3cc4c(cc3[C@@H](O[C@@H]3O[C@@H]5CO[C@@H](C)O[C@H]5[C@H](O)[C@H]3O)[C@H]3COC(=O)[C@H]23)OCO4)cc(OC)c1O [Etoposide, etoposide] | 0.292 | 0.266 | 0.494 | 0.8 |  |  | 
3 |  |  | COc1cc(Nc2ncc3c(n2)-c2ccc(Cl)cc2C(c2c(F)cccc2OC)=NC3)ccc1C(=O)O [alisertib] |  |  |  |  | high response rates | active as a single agent | 
4 |  |  | CS(=O)(=O)CCNCc1ccc(-c2ccc3ncnc(Nc4ccc(OCc5cccc(F)c5)c(Cl)c4)c3c2)o1 [lapatinib] |  |  |  |  |  |  | significant impairment of cell migration and initiation of apoptosis
